Data set [1] relates to mir-155^LSLtTA lymphoma subcutaneous flank tumors. The data set is described as follows: mir-155^LSLtTA lymphoma subcutaneous flank tumor model in nude mice. Conditions: early endpoint study; n = 3, pHLIP-anti155 n = 4. The data set is classed as in vivo.
The conditions of data set [2]: mouse, in vivo, iv.

On to `C[C@H]1c2cccc(O)c2C(=O)C2=C(O)[C@]3(O)C(=O)C(C(N)=O)=C(O)[C@@H](N(C)C)[C@@H]3[C@@H](O)[C@@H]21` [DOX, doxycycline], for which the “Onset of splenomegaly (spleen mass)” value in data set [1] is “reduced the onset of splenomegaly”.

Consider “AAEQNPIYWARYADWLFTTPLLLLDLALLVDADEGT(CNPys)G [pHLIP]”, for which, in data set [2], the Clearance route result is listed as “much of the peptide is cleared by renal excretion” and the Kidney distribution entry is listed as “shows kidney targeting”.

The values are drawn from paper PMC4367962 (Nature, 2014).
